# According to ChEMBL document CHEMBL4507264, “Data for DCP probe BAY-7598” (2021):
# How the values were obtained:
# [1] = target: Serine/threonine-protein kinase MARK1 (Homo sapiens) (UniProt Q9P0L2); details: Compound concentration 1000.0 nM
# [2] = target: D(1B) dopamine receptor (Homo sapiens) (UniProt P21918); details: Compound concentration 10.0 uM
# [3] = target: Ribosomal protein S6 kinase alpha-3 (Homo sapiens) (UniProt P51812); details: Compound concentration 1000.0 nM
# [4] = target: Calcium/calmodulin-dependent protein kinase type 1B (Homo sapiens) (UniProt Q6P2M8); details: Compound concentration 1000.0 nM
# [5] = target: Activin receptor type-2A (Homo sapiens) (UniProt P27037); details: Compound concentration 1000.0 nM
# [6] = target: Serine/threonine-protein kinase 4 (Homo sapiens) (UniProt Q13043); details: Compound concentration 1000.0 nM
# [7] = target: Homeodomain-interacting protein kinase 2 (Homo sapiens) (UniProt Q9H2X6); details: Compound concentration 1000.0 nM
# [8] = target: Serine/threonine-protein kinase 32C (Homo sapiens) (UniProt Q86UX6); details: Compound concentration 1000.0 nM
# [9] = target: SRSF protein kinase 1 (Homo sapiens) (UniProt Q96SB4); details: Compound concentration 1000.0 nM
# [10] = target: Tyrosine-protein kinase Tec (Homo sapiens) (UniProt P42680); details: Compound concentration 1000.0 nM
# [11] = target: Serine/threonine-protein kinase PAK 4 (Homo sapiens) (UniProt O96013); details: Compound concentration 1000.0 nM
# [12] = target: Serine/threonine-protein kinase DCLK3 (Homo sapiens) (UniProt Q9C098); details: Compound concentration 1000.0 nM
# [13] = target: Calcium/calmodulin-dependent protein kinase type II subunit beta (Homo sapiens) (UniProt Q13554); details: Compound concentration 1000.0 nM
# [14] = target: Serine/threonine-protein kinase 3 (Homo sapiens) (UniProt Q13188); details: Compound concentration 1000.0 nM
# [15] = target: Mitogen-activated protein kinase 14 (Homo sapiens) (UniProt Q16539); details: Compound concentration 1000.0 nM
# [16] = target: 5-hydroxytryptamine receptor 1E (Homo sapiens) (UniProt P28566); details: Compound concentration 10.0 uM
# [17] = target: Cyclin-dependent kinase 4 (Homo sapiens) (UniProt P11802); details: Compound concentration 1000.0 nM
# [18] = target: Ribosomal protein S6 kinase beta-1 (Homo sapiens) (UniProt P23443); details: Compound concentration 1000.0 nM
# [19] = target: Mitogen-activated protein kinase kinase kinase kinase 5 (Homo sapiens) (UniProt Q9Y4K4); details: Compound concentration 1000.0 nM
# [20] = target: Serine/threonine-protein kinase LATS1 (Homo sapiens) (UniProt O95835); details: Compound concentration 1000.0 nM
# [21] = target: cAMP-dependent protein kinase catalytic subunit beta (Homo sapiens) (UniProt P22694); details: Compound concentration 1000.0 nM
# [22] = target: Rho-associated protein kinase 1 (Homo sapiens) (UniProt Q13464); details: Compound concentration 1000.0 nM
# [23] = target: RAC-beta serine/threonine-protein kinase (Homo sapiens) (UniProt P31751); details: Compound concentration 1000.0 nM
# [24] = target: Histamine H4 receptor (Homo sapiens) (UniProt Q9H3N8); details: Compound concentration 10.0 uM
# [25] = target: Mitogen-activated protein kinase kinase kinase 15 (Homo sapiens) (UniProt Q6ZN16); details: Compound concentration 1000.0 nM
# [26] = target: Serine/threonine-protein kinase ULK2 (Homo sapiens) (UniProt Q8IYT8); details: Compound concentration 1000.0 nM
# [27] = target: GABA-A receptor; anion channel (Rattus norvegicus) (UniProt O09028+P15431+P18506+P18508+P19969+P20236+P23574+P23576+P28471+P28473+P30191+P62813+P63079+P63138+Q91ZM7+Q9ES14); details: Compound concentration 10.0 uM
# [28] = target: Ribosomal protein S6 kinase alpha-5 (Homo sapiens) (UniProt O75582); details: Compound concentration 1000.0 nM
# [29] = target: Muscarinic acetylcholine receptor M5 (Homo sapiens) (UniProt P08912); details: Compound concentration 10.0 uM
# [30] = target: Epidermal growth factor receptor (Homo sapiens) (UniProt P00533); details: Compound concentration 1000.0 nM
# [31] = target: Tyrosine-protein kinase BTK (Homo sapiens) (UniProt Q06187); details: Compound concentration 1000.0 nM
# [32] = target: Cyclin-dependent kinase 3 (Homo sapiens) (UniProt Q00526); details: Compound concentration 1000.0 nM
# [33] = target: RAC-gamma serine/threonine-protein kinase (Homo sapiens) (UniProt Q9Y243); details: Compound concentration 1000.0 nM
# [34] = target: Serine/threonine-protein kinase 33 (Homo sapiens) (UniProt Q9BYT3); details: Compound concentration 1000.0 nM
# [35] = target: Serine/threonine-protein kinase Nek5 (Homo sapiens) (UniProt Q6P3R8); details: Compound concentration 1000.0 nM
# [36] = test system: Phosphatidylinositol 4,5-bisphosphate 3-kinase catalytic subunit alpha isoform (Homo sapiens), P42336 [H1047L]; details: Compound concentration 1000.0 nM
# [37] = target: Homeodomain-interacting protein kinase 3 (Homo sapiens) (UniProt Q9H422); details: Compound concentration 1000.0 nM
# [38] = test system: Tyrosine-protein kinase ABL1 (Homo sapiens), P00519 [F317I]; details: Compound concentration 1000.0 nM
# [39] = target: Serine/threonine-protein kinase LATS2 (Homo sapiens) (UniProt Q9NRM7); details: Compound concentration 1000.0 nM
# [40] = target: Serine/threonine-protein kinase 16 (Homo sapiens) (UniProt O75716); details: Compound concentration 1000.0 nM
# [41] = target: Serine/threonine-protein kinase 17B (Homo sapiens) (UniProt O94768); details: Compound concentration 1000.0 nM
# [42] = target: Muscarinic acetylcholine receptor M3 (Homo sapiens) (UniProt P20309); details: Compound concentration 10.0 uM
# [43] = target: MAP kinase-activated protein kinase 2 (Homo sapiens) (UniProt P49137); details: Compound concentration 1000.0 nM
# [44] = target: Sigma non-opioid intracellular receptor 1 (Homo sapiens) (UniProt Q99720); details: Compound concentration 10.0 uM
# Sequence of Sigma non-opioid intracellular receptor 1 (Homo sapiens) (Q99720 whole entry): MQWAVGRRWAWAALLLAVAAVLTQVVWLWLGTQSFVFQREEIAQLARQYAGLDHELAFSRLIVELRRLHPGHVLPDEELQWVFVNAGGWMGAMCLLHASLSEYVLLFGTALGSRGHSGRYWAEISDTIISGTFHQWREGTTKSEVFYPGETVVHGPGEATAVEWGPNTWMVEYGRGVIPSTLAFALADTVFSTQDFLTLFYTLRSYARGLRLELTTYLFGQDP
# Sequence of Serine/threonine-protein kinase LATS2 (Homo sapiens) (Q9NRM7 whole entry): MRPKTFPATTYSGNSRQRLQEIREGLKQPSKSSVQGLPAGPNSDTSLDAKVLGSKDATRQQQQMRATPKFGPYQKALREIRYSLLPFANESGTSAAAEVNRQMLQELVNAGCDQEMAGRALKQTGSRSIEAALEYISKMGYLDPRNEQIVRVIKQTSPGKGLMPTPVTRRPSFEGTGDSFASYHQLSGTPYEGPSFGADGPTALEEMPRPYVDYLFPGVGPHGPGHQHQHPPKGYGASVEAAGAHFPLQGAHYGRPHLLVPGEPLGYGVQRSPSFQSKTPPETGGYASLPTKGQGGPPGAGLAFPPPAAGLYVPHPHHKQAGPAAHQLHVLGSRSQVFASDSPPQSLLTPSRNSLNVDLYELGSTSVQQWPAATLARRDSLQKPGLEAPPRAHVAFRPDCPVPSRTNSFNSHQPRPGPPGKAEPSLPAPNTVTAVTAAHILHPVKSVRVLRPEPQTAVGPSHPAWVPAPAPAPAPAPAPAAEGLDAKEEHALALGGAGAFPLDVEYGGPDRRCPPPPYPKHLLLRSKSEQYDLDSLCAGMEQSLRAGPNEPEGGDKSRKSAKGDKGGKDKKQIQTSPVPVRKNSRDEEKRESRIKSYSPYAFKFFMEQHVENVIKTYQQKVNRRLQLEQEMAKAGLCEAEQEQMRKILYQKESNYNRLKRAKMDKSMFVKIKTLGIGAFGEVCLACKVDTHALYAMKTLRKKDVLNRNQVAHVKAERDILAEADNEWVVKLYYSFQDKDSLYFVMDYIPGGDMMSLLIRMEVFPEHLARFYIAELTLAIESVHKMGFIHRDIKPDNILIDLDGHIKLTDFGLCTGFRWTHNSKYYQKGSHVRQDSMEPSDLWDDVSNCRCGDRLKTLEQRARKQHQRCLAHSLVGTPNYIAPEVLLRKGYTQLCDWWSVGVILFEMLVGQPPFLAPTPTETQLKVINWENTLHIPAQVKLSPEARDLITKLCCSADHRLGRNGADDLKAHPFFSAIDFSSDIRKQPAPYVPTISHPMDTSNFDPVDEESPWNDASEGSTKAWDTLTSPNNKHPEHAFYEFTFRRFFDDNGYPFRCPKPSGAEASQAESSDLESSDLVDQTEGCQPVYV
# Sequence of Muscarinic acetylcholine receptor M5 (Homo sapiens) (P08912 whole entry): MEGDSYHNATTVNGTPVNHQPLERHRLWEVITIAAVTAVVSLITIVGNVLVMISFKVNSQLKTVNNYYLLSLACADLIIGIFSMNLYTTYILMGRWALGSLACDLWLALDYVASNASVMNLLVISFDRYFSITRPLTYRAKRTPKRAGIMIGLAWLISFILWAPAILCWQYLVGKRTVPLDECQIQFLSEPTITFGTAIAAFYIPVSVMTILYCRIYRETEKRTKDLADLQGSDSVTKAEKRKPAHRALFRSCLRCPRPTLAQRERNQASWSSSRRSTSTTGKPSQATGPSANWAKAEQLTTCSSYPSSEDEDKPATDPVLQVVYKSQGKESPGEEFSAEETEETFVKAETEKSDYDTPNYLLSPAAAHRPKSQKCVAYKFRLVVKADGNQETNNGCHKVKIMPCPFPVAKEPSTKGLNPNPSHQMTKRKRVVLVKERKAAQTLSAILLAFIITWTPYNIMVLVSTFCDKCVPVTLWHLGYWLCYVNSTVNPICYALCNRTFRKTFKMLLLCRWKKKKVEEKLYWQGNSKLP
# Sequence of Serine/threonine-protein kinase 4 (Homo sapiens) (Q13043 whole entry): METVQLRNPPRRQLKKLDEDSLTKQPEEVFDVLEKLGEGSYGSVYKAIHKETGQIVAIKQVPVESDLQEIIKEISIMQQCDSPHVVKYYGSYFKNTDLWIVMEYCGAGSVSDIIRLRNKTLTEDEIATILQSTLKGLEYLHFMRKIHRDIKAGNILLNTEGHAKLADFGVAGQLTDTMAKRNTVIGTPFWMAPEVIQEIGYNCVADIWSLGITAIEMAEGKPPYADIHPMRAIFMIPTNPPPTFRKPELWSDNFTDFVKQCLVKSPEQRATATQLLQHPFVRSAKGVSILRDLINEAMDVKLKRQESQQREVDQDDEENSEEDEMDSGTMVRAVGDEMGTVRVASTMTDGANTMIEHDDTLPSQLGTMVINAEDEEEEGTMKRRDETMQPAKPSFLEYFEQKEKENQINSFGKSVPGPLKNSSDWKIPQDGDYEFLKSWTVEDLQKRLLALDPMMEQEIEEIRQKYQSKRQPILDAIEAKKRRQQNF
# Sequence of Mitogen-activated protein kinase kinase kinase kinase 5 (Homo sapiens) (Q9Y4K4 whole entry, looked up): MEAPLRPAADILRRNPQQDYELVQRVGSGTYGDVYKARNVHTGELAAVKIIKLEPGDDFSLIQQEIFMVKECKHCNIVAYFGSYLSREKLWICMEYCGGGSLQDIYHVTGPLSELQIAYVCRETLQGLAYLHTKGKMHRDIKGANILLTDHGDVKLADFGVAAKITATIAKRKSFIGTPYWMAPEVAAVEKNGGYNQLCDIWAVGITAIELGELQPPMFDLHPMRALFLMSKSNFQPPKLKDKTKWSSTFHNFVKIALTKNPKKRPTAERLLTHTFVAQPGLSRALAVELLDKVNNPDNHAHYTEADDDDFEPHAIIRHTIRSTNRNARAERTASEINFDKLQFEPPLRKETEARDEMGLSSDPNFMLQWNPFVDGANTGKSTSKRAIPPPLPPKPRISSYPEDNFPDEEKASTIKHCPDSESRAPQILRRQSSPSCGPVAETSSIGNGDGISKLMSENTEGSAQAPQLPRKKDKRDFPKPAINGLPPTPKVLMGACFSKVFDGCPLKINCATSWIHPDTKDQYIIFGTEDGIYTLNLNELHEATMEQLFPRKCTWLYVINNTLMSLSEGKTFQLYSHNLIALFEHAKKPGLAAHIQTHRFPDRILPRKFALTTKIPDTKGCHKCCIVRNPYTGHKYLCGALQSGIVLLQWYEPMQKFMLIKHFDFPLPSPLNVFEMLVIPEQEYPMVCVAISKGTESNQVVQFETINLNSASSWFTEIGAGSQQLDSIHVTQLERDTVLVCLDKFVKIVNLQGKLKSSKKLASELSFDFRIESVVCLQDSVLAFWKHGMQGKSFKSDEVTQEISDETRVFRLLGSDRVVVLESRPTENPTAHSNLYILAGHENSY
# Sequence of Serine/threonine-protein kinase PAK 4 (Homo sapiens) (O96013 whole entry, looked up): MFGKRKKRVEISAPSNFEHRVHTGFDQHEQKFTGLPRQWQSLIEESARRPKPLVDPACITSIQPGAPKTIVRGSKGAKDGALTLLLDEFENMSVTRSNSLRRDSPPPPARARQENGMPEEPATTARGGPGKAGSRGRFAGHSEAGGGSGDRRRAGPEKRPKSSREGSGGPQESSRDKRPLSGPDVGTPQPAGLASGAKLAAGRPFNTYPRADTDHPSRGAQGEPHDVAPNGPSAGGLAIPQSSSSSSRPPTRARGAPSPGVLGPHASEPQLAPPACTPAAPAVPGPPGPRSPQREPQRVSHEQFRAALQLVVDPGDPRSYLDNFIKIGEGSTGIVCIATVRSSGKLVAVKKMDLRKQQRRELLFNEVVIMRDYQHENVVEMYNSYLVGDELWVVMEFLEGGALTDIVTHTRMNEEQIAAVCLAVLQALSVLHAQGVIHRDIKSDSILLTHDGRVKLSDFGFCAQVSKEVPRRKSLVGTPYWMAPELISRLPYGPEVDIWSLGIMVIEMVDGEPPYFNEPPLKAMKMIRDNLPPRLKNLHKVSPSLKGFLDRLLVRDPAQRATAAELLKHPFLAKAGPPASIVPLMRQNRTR
# Sequence of Activin receptor type-2A (Homo sapiens) (P27037 whole entry): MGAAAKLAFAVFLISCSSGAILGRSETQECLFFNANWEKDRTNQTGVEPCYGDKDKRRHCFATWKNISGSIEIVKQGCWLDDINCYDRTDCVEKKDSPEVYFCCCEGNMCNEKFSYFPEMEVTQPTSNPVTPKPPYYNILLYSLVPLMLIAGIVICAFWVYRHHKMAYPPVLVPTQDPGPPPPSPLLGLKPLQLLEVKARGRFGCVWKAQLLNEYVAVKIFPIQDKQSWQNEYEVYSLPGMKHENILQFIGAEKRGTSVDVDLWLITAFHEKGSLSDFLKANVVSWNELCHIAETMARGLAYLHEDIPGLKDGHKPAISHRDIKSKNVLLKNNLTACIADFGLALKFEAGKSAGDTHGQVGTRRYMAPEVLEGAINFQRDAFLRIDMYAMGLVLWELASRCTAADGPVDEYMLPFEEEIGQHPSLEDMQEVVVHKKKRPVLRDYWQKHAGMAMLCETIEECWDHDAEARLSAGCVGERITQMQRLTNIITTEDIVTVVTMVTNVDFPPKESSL
# Sequence of Cyclin-dependent kinase 4 (Homo sapiens) (P11802 whole entry): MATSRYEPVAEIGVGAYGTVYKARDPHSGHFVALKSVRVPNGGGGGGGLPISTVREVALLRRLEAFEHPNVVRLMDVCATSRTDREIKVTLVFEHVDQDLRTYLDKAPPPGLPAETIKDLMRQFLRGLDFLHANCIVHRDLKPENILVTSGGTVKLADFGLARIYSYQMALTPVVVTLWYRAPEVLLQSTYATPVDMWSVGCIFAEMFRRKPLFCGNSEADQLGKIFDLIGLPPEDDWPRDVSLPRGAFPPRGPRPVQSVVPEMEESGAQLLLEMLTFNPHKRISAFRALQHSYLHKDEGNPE
# Sequence of Serine/threonine-protein kinase 17B (Homo sapiens) (O94768 whole entry): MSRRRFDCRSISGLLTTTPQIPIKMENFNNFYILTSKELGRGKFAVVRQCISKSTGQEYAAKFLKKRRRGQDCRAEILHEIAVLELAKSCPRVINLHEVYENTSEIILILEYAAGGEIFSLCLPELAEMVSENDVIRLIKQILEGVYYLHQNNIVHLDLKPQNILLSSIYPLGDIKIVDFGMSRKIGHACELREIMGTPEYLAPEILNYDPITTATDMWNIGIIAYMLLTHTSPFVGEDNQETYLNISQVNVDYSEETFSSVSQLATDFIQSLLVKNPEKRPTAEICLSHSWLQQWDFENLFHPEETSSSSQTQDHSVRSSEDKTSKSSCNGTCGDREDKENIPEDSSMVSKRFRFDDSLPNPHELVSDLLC
compound,measurement,setting,value
O=C(O)[C@@H]1[C@@H](Cn2nnc3ccccc3c2=O)CC[C@H]1C(=O)c1ccc(OCCC2CCOCC2)cc1 [BAY-694],residual activity,[1],100%
same,inhibition,[2],19.6%
same,residual activity,[3],85%
same,residual activity,[4],67%
same,residual activity,[5],100%
same,residual activity,[6],98%
same,residual activity,[7],100%
same,residual activity,[8],100%
same,residual activity,[9],100%
same,residual activity,[10],95%
same,residual activity,[11],89%
same,residual activity,[12],100%
same,residual activity,[13],100%
same,residual activity,[14],100%
same,residual activity,[15],89%
same,inhibition,[16],3.94%
same,residual activity,[17],96%
same,residual activity,[18],100%
same,residual activity,[19],100%
same,residual activity,[20],90%
same,residual activity,[21],100%
same,residual activity,[22],84%
same,residual activity,[23],100%
same,inhibition,[24],3.39%
same,residual activity,[25],54%
same,residual activity,[26],90%
same,inhibition,[27],10.2%
same,residual activity,[28],100%
same,inhibition,[29],1.82%
same,residual activity,[30],90%
same,residual activity,[31],100%
same,residual activity,[32],100%
same,residual activity,[33],100%
same,residual activity,[34],69%
same,residual activity,[35],100%
same,residual activity,[36],84%
same,residual activity,[37],100%
same,residual activity,[38],100%
same,residual activity,[39],100%
same,residual activity,[40],89%
same,residual activity,[41],99%
same,inhibition,[42],5.09%
same,residual activity,[43],100%
same,inhibition,[44],29.3%
O=C(O)[C@H]1[C@H](Cn2nnc3ccccc3c2=O)CC[C@@H]1C(=O)c1ccc(OCCC2CCOCC2)cc1 [BAY-7598],residual activity,[1],99%
same,inhibition,[2],7.53%
same,residual activity,[3],83%
same,residual activity,[4],46%
same,residual activity,[5],87%
same,residual activity,[6],98%
same,residual activity,[7],100%
same,residual activity,[8],89%
same,residual activity,[9],79%
same,residual activity,[10],100%
same,residual activity,[11],91%
same,residual activity,[12],98%
same,residual activity,[13],100%
same,residual activity,[14],91%
same,residual activity,[15],85%
same,inhibition,[16],7.37%
same,residual activity,[17],89%
same,residual activity,[18],100%
same,residual activity,[19],92%
same,residual activity,[20],84%
same,residual activity,[21],95%
same,residual activity,[22],87%
same,residual activity,[23],88%
same,inhibition,[24],1.99%
same,residual activity,[25],64%
same,residual activity,[26],100%
same,inhibition,[27],7.4%
same,residual activity,[28],100%
same,inhibition,[29],4.3%
same,residual activity,[30],88%
same,residual activity,[31],100%
same,residual activity,[32],100%
same,residual activity,[33],73%
same,residual activity,[34],98%
same,residual activity,[35],97%
same,residual activity,[36],71%
same,residual activity,[37],99%
same,residual activity,[38],100%
same,residual activity,[39],100%
same,residual activity,[40],85%
same,residual activity,[41],100%
same,inhibition,[42],-7.32%
same,residual activity,[43],89%
same,inhibition,[44],6.09%
